Test results reported in patent US20230114357A1, “CONTINUOUS MELT-COATING OF ACTIVE PHARMACEUTICAL INGREDIENTS USING SURFACTANTS FOR DISSOLUTION ENHANCEMENT” (Rutgers,The State University of New Jersey, priority 2020, published 2023).
≈ marks a conversion by molar mass, not a printed value. Values belong to the compound of their own block, whether it stands above or below them.

How the values were obtained:
[1] = physchem; conditions: pH 1.8, simulated gastric fluid
[2] = Dissolution testing of ibuprofen/polyoxyethylene stearate powders (USP paddle method); format: physicochemical; conditions: 12 mg powder, Ibuprofen 2, 10% polyoxyethylene stearate, 75 rpm, 900 ml 0.02 M hydrochloric acid pH 1.8; FIG. 6
[3] = Dissolution testing of ibuprofen/poloxamer powders (USP paddle method); format: physicochemical; conditions: 12 mg powder, 75 rpm, 900 ml 0.02 M hydrochloric acid pH 1.8; Ibuprofen 1, 2, 3; FIGS. 2-4
[4] = Powder bulk density of ibuprofen / 10% P407 powders; format: physicochemical; conditions: ibuprofen combined with 10% Poloxamer 407, not subjected to heat and shear
Protocol: The screw configurations are shown below, where “C” represents conveying elements and “K” represents kneading elements: For each experiment, mean residence time, powder temperature, and powder bulk density were measured.

[5] = 50 mg powder, 10% cetylpyridinium chloride, 100 rpm, 900 ml deionized water; FIG. 7

SMILES: CC(C)Cc1ccc(C(C)C(=O)O)cc1 (stereo not shown) [Ibuprofen 1, ibuprofen]
Powder Bulk Density of 10% P407 Physical Mix [4]: 0.320 g/ml

SMILES: NC(=O)N1c2ccccc2C=Cc2ccccc21 [Uncoated carbamazepine, carbamazepine]
dissolution rate (percentage of carbamazepine released over time) [5]: poorest dissolution rate

Next, values leading:

solubility [1]: 0.053 mg/mL (≈ 257 µM)
dissolution rate (percentage of ibuprofen released over time) [2]: poorest dissolution rate
dissolution rate (percentage of ibuprofen released over time) [3]: slowest dissolution rate
SMILES: CC(C)Cc1ccc(C(C)C(=O)O)cc1 (stereo not shown) [Uncoated ibuprofen, ibuprofen]

Powder Bulk Density of 10% P407 Physical Mix [4]: 0.374 g/ml
SMILES: CC(C)Cc1ccc(C(C)C(=O)O)cc1 (stereo not shown) [Ibuprofen 2, ibuprofen]

Powder Bulk Density of 10% P407 Physical Mix [4]: 0.382 g/ml
SMILES: CC(C)Cc1ccc(C(C)C(=O)O)cc1 (stereo not shown) [Ibuprofen 3, ibuprofen]
